Experimental data: PubChem BioAssay AID248 (DTP/NCI, 2004)
Values joined by “and” are separate entries in the source; they are usually repeats but may differ in a detail not shown here. Identical values can stand only once. Toxic doses and inconclusive results are not listed. No stated cut-off is given here; in the data, active means T/C of 150% or more; inactive means T/C below 125%.

Tested on: L1210 leukemia ip in BDF1 mice, survival T/C
Test: NCI In Vivo Anticancer Drug Screen. Data for tumor model L1210 Leukemia (intraperitoneal) in B6D2F1 (BDF1) mice
Settings: endpoint: mean survival time, higher = longer survival
Summary of the method: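 Read-out is survival time, reported as the treated-group measurement over the vehicle-control measurement.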

[1] = dose: 100.0 mg/kg/injection, schedule: Q01DX009 (ip), vehicle: saline with Tween-80
[2] = dose: 100.0 mg/kg/injection, schedule: Q04DX003 (ip), vehicle: saline
[3] = dose: 50.0 mg/kg/injection, schedule: Q01DX001 (ip), vehicle: carboxymethylcellulose (CMC)
[4] = dose: 100.0 mg/kg/injection, schedule: Q01DX001 (ip), vehicle: carboxymethylcellulose (CMC)
[5] = dose: 100.0 mg/kg/injection, schedule: Q04DX003 (ip), vehicle: Klucel (hydroxypropylcellulose) (HPC)
[6] = dose: 200.0 mg/kg/injection, schedule: Q01DX001 (ip), vehicle: carboxymethylcellulose (CMC)
[7] = dose: 200.0 mg/kg/injection, schedule: Q04DX003 (ip), vehicle: Klucel (hydroxypropylcellulose) (HPC)
[8] = dose: 400.0 mg/kg/injection, schedule: Q01DX001 (ip), vehicle: carboxymethylcellulose (CMC)
[9] = dose: 400.0 mg/kg/injection, schedule: Q04DX003 (ip), vehicle: Klucel (hydroxypropylcellulose) (HPC)
[10] = dose: 100.0 mg/kg/injection, schedule: Q01DX001 (ip), vehicle: saline
[11] = dose: 200.0 mg/kg/injection, schedule: Q01DX001 (ip), vehicle: saline
[12] = dose: 400.0 mg/kg/injection, schedule: Q01DX001 (ip), vehicle: saline
[13] = dose: 100.0 mg/kg/injection, schedule: Q04DX003 (ip), vehicle: saline with Tween-80
[14] = dose: 200.0 mg/kg/injection, schedule: Q04DX003 (ip), vehicle: saline with Tween-80

Measured: T/C

NC(N)=N/N=C/C(Cl)Cl
inactive: dose: 15.0 mg/kg/injection, schedule: Q01DX Z (ip), vehicle: carboxymethylcellulose (CMC) 103 % of control | dose: 25.0 mg/kg/injection, schedule: Q01DX009 (ip), vehicle: saline with Tween-80 100 % of control | dose: 30.0 mg/kg/injection, schedule: Q01DX Z (ip), vehicle: carboxymethylcellulose (CMC) 97 % of control | dose: 30.0 mg/kg/injection, schedule: Q01DX Z (oral), vehicle: carboxymethylcellulose (CMC) 92 % of control | dose: 37.0 mg/kg/injection, schedule: Q01DX Z (oral), vehicle: carboxymethylcellulose (CMC) 113 % of control | dose: 50.0 mg/kg/injection, schedule: Q01DX009 (ip), vehicle: saline with Tween-80 103 % of control | dose: 50.0 mg/kg/injection, schedule: Q04DX003 (ip), vehicle: saline 98 % of control | dose: 60.0 mg/kg/injection, schedule: Q01DX Z (ip), vehicle: carboxymethylcellulose (CMC) 111 % of control | dose: 60.0 mg/kg/injection, schedule: Q01DX Z (oral), vehicle: carboxymethylcellulose (CMC) 121 % of control | dose: 75.0 mg/kg/injection, schedule: Q01DX001 (oral), vehicle: carboxymethylcellulose (CMC) 113 % of control | dose: 75.0 mg/kg/injection, schedule: Q01DX Z (oral), vehicle: carboxymethylcellulose (CMC) 107 % of control | [1] 121 % of control | [2] 102 % of control | dose: 150.0 mg/kg/injection, schedule: Q01DX001 (oral), vehicle: carboxymethylcellulose (CMC) 104 % of control | dose: 300.0 mg/kg/injection, schedule: Q01DX001 (oral), vehicle: carboxymethylcellulose (CMC) 104 % of control | dose: 300.0 mg/kg/injection, schedule: Q01DX Z (oral), vehicle: carboxymethylcellulose (CMC) 113 % of control | dose: 600.0 mg/kg/injection, schedule: Q01DX001 (oral), vehicle: carboxymethylcellulose (CMC) 117 % of control

N#CC(C#N)=Cc1ccc2ccccc2c1Br
inactive: [1] 96 % of control | dose: 200.0 mg/kg/injection, schedule: Q01DX009 (ip), vehicle: saline with Tween-80 94 % of control | dose: 400.0 mg/kg/injection, schedule: Q01DX009 (ip), vehicle: saline with Tween-80 90 % of control

c1ccc(C(=C2CCC2)c2c3ccccc3cc3ccccc23)cc1
inactive: dose: 40.0 mg/kg/injection, schedule: Q01DX009 (ip), vehicle: Klucel (hydroxypropylcellulose) (HPC) 99 % of control | dose: 75.0 mg/kg/injection, schedule: Q01DX001 (ip), vehicle: Klucel (hydroxypropylcellulose) (HPC) 93 % of control | dose: 75.0 mg/kg/injection, schedule: Q01DX009 (ip), vehicle: Klucel (hydroxypropylcellulose) (HPC) 107 % of control | dose: 150.0 mg/kg/injection, schedule: Q01DX001 (ip), vehicle: Klucel (hydroxypropylcellulose) (HPC) 90 % of control | dose: 150.0 mg/kg/injection, schedule: Q01DX009 (ip), vehicle: Klucel (hydroxypropylcellulose) (HPC) 99 % of control

[Cl][Sb]([Cl])([c]1ccccc1)([c]1ccccc1)[c]1ccccc1
inactive: dose: 12.5 mg/kg/injection, schedule: Q01DX009 (ip), vehicle: Klucel (hydroxypropylcellulose) (HPC) 95 % of control | dose: 25.0 mg/kg/injection, schedule: Q01DX009 (ip), vehicle: Klucel (hydroxypropylcellulose) (HPC) 93 % of control | dose: 25.0 mg/kg/injection, schedule: Q04DX002 (ip), vehicle: saline with Tween-80 93 % of control | [3] 96 % of control | dose: 50.0 mg/kg/injection, schedule: Q01DX009 (ip), vehicle: Klucel (hydroxypropylcellulose) (HPC) 102 % of control and 91 % of control | dose: 50.0 mg/kg/injection, schedule: Q04DX002 (ip), vehicle: saline with Tween-80 97 % of control | [4] 96 % of control | dose: 100.0 mg/kg/injection, schedule: Q04DX002 (ip), vehicle: saline with Tween-80 101 % of control | [5] 102 % of control | [6] 114 % of control | [7] 96 % of control | [8] 93 % of control | [9] 105 % of control

O=C(Nc1ccc(F)cc1)Nc1cccc(Cl)c1
inactive: [3] 101 % of control | [4] 101 % of control | [6] 93 % of control | [8] 106 % of control

C=C1C2CCC3(C)C(c4ccoc4)OC(=O)CC13OC1CC(=O)C(C)(C)C(CC(=O)OC)C12C (configuration not stated)
inactive: [10] 97 % of control | [11] 96 % of control | [12] 114 % of control

CCOC(=O)CC1c2nc3ccccc3cc2CN1C(=O)OCC (configuration not stated)
inactive: [5] 100 % of control | [7] 102 % of control | [9] 103 % of control

NC(=O)c1nccc2ccccc12
inactive: [10] 110 % of control | [11] 107 % of control | [12] 98 % of control

O=C(O)CSc1ccc([N+](=O)[O-])cn1
inactive: dose: 6.25 mg/kg/injection, schedule: Q01DX001 (ip), vehicle: carboxymethylcellulose (CMC) 108 % of control | dose: 12.5 mg/kg/injection, schedule: Q01DX001 (ip), vehicle: carboxymethylcellulose (CMC) 111 % of control | dose: 25.0 mg/kg/injection, schedule: Q01DX001 (ip), vehicle: carboxymethylcellulose (CMC) 104 % of control | dose: 37.5 mg/kg/injection, schedule: Q01DX001 (ip), vehicle: carboxymethylcellulose (CMC) 104 % of control | [3] 115 % of control | [4] 101 % of control | [6] 103 % of control | [8] 101 % of control

COc1c(CO)cc(C)cc1CO
inactive: dose: 87.5 mg/kg/injection, schedule: Q04DX003 (ip), vehicle: saline with Tween-80 101 % of control | dose: 175.0 mg/kg/injection, schedule: Q04DX003 (ip), vehicle: saline with Tween-80 124 % of control | dose: 350.0 mg/kg/injection, schedule: Q04DX003 (ip), vehicle: saline with Tween-80 101 % of control

COc1ccc(/C=N/N=c2\[nH][nH]/c(=N\N=C\c3ccc(OC)c4ccccc34)c3ccccc23)c2ccccc12
inactive: dose: 50.0 mg/kg/injection, schedule: Q01DX001 (ip), vehicle: saline 100 % of control | [10] 100 % of control | [11] 103 % of control | [12] 105 % of control

CSc1ncnc2c1ncn2-n1cccc1
inactive: dose: 100.0 mg/kg/injection, schedule: Q01DX001 (ip), vehicle: saline with Tween-80 104 % of control | dose: 100.0 mg/kg/injection, schedule: Q01DX009 (ip), vehicle: Klucel (hydroxypropylcellulose) (HPC) 97 % of control | [5] 93 % of control | [13] 103 % of control | dose: 200.0 mg/kg/injection, schedule: Q01DX001 (ip), vehicle: saline with Tween-80 106 % of control | dose: 200.0 mg/kg/injection, schedule: Q01DX009 (ip), vehicle: Klucel (hydroxypropylcellulose) (HPC) 95 % of control | [7] 96 % of control | [14] 101 % of control | dose: 400.0 mg/kg/injection, schedule: Q01DX001 (ip), vehicle: saline with Tween-80 95 % of control | dose: 400.0 mg/kg/injection, schedule: Q01DX009 (ip), vehicle: Klucel (hydroxypropylcellulose) (HPC) 101 % of control | [9] 98 % of control

CC1=CCS(=O)(=O)C1
inactive: [2] 103 % of control | dose: 200.0 mg/kg/injection, schedule: Q04DX003 (ip), vehicle: saline 101 % of control

O=C(CCBr)NCNC(=O)CCBr
active: dose: 264.0 mg/kg/injection, schedule: Q04DX003 (ip), vehicle: acetone 153 % of control | dose: 266.0 mg/kg/injection, schedule: Q04DX003 (ip), vehicle: Klucel (hydroxypropylcellulose) (HPC) 154 % of control | [9] 170 % of control | dose: 400.0 mg/kg/injection, schedule: Q04DX003 (ip), vehicle: saline with Tween-80 151 % of control
inactive: dose: 53.0 mg/kg/injection, schedule: Q04DX003 (ip), vehicle: Klucel (hydroxypropylcellulose) (HPC) 114 % of control | dose: 80.0 mg/kg/injection, schedule: Q04DX003 (ip), vehicle: Klucel (hydroxypropylcellulose) (HPC) 109 % of control | dose: 100.0 mg/kg/injection, schedule: Q01DX009 (ip), vehicle: saline 86 % of control | [13] 113 % of control | dose: 120.0 mg/kg/injection, schedule: Q04DX003 (ip), vehicle: Klucel (hydroxypropylcellulose) (HPC) 116 % of control | [14] 117 % of control | dose: 266.0 mg/kg/injection, schedule: Q04DX003 (ip), vehicle: saline 114 % of control | dose: 400.0 mg/kg/injection, schedule: Q04DX003 (ip), vehicle: acetone 113 % of control | dose: 400.0 mg/kg/injection, schedule: Q04DX003 (ip), vehicle: saline 120 % of control
